Reference: patent US11352400B2, “PI3K gamma inhibitor peptide for treatment of respiratory system diseases” (Kither Biotech S.r.I., priority 2014, dated 2022)

How the values were obtained:
PDE4D = experiment: Phosphodiesterase activity in anti-PDE4D immunoprecipitates from treated tracheal smooth muscle cells; format: cell-based, mouse; conditions: tracheal smooth muscle cells of wild-type mice (PI3Kγ+/+); 50 μM, 30 minutes
Procedure: For protein extraction from murine tracheal smooth muscle cells (mTSMCs) and human bronchial smooth muscle cells (hBSMCs), cells were treated with the indicated drugs/peptides and immediately lysed in cold lysis buffer containing 120 mmol/L NaCl, 50 mmol/L Tris-HCl (pH 8.0), complete protease inhibitors (Roche Applied Science, Indianapolis, Ind.) and phosphatase inhibitors (50 mmol/L sodium fluoride, 1 mmol/L sodium orthovanadate and 10 mmol/L sodium pyrophosphate). After 30 min of incubation on ice, lysates were centrifuged at 13000 rpm for 10 min at 4° C. and used for either Western blotting or subjected to immunoprecipitation and measurements of phosphodiesterase activity. […]
Phosphodiesterase activity in immunoprecipitates was measured according to the two-step method of Thompson and Appleman, as previously described (2), with minor modifications. […] The amount of radiolabeled adenosine in the supernatant was quantified by scintillation counting (Ultima Gold liquid scintillation from Perkin Elmer, Waltham, Mass.).
Murine tracheal smooth muscle cells were cultured from explants of trachea using previously described methods with modifications. […] More than 90% of these cells were smooth muscle cells, as determined by immunofluorescence performed with an antibody specific for smooth muscle actin. […]

[1] = system: Cav1.2 subunit (Ser-1928) of the L-type calcium channel (LTCC); experiment: Western blot of cAMP-dependent phosphorylation of Cav1.2 in hBSMCs; format: cell-based, human; conditions: 50 μM, 30 minutes, vs vehicle or P1
Procedure: For protein extraction from murine tracheal smooth muscle cells (mTSMCs) and human bronchial smooth muscle cells (hBSMCs), cells were treated with the indicated drugs/peptides and immediately lysed in cold lysis buffer containing 120 mmol/L NaCl, 50 mmol/L Tris-HCl (pH 8.0), complete protease inhibitors (Roche Applied Science, Indianapolis, Ind.) and phosphatase inhibitors (50 mmol/L sodium fluoride, 1 mmol/L sodium orthovanadate and 10 mmol/L sodium pyrophosphate). After 30 min of incubation on ice, lysates were centrifuged at 13000 rpm for 10 min at 4° C. and used for either Western blotting or subjected to immunoprecipitation and measurements of phosphodiesterase activity.

wild-type CFTR = experiment: Chloride currents in Ussing chamber, NuLi-1 cells; format: cell-based, human; conditions: peptide 10-30 μM, P1 30 μM
Procedure: (§1) Human airway epithelial cell lines expressing a wild-type CFTR (NuLi-1) or with the ΔF508 mutation (CuFi-1) were purchased from ATCC (NuLi-1 product code: ATCC® CRL-4011™; CuFi-1 product code: ATCC® CRL-4013™). Cells were cultured in Dulbecco's Modified Eagle Medium (DMEM, Gibco, Carlsbad, Calif.) supplemented with 10% fetal bovine serum (FBS), 30 μg/mL of penicillin, 100 μg/mL of streptomycin and 300 μg/mL hygromycin B (Gibco, Carlsbad, Calif.).
(§2) To measure chloride currents in normal and ΔF508 primary human bronchial epithelial cells, cells were cultured on 1.12 cm^2 Snapwell inserts. Filters were mounted in Ussing chambers, and a chloride gradient was applied by incubating the cells in a basolateral high-chloride buffer containing (in mmol/L): 140 NaCl, 5 KCl, 0.36 K2HPO4, 0.44 KH2PO4, 1.3 CaCl2, 0.5 MgCl2, 4.2 NaHCO3, 10 HEPES, and 10 glucose, at pH 7.4 and an apical low-chloride buffer containing (in mmol/L): 133.3 Na-gluconate, 5 K-gluconate, 2.5 NaCl, 0.36 K2HPO4, 0.44 KH2PO4, 5.7 CaCl2, 0.5 MgCl2, 4.2 NaHCO3, 10 HEPES, and 10 mannitol, at pH 7.4. Buffers were aerated with a mixture of 95% O2 and 5% CO2 and the temperature was maintained at 37° C. during the experiment. […] After a stabilization period of 30 minutes, drugs were added at specific times, while the current was continuously recorded.

ΔF508-CFTR = experiment: Chloride currents in Ussing chamber, CuFi-1 cells; format: cell-based, human; conditions: CuFi-1 cells corrected with VX-809 (20 μM, 24 hours); peptide 10 μM in the presence of VX-770 10 μM
Procedure: as §1, §2

CFTR = experiment: cAMP-mediated (PKA) phosphorylation of CFTR in NuLi-1 cells; format: cell-based, human; conditions: 30 minutes
Procedure: as §1
For immunoprecipitation assays, protein extracts were pre-incubated with 30 μL of a 1:1 mixture of protein A or G and sepharose (Amersham Biosciences, Buckinghamshire, UK) and subsequently incubated with 20 μL of a 1:1 mixture of protein A or G and sepharose and […] of primary antibody for each mg of protein, for 2 hours at 4° C. Immune complexes were washed extensively with lysis buffer and used for Western blotting or subjected to measurements of phosphodiesterase activity.
The antibody that recognizes substrates phosphorylated by PKA (P-PKA substrate) was purchased from Cell Signaling Technology (Danvers, Mass., USA; product code: #9621) and the antibody against CFTR clone M3A7 from Millipore (Billerica, Mass., USA; product code: 05-583).

How did the “catalytic activity of PDE4D” value (PDE4D) turn out when “RQIKIWFQNRRMKWKKGKATHRSPGQIHLVQRHPPSEESQAF (fusion peptide comprising SEQ ID No.1 and SEQ ID No.3) [Trojan peptide derived from PI3Kγ]” was run?
The value was “significantly reduced”.

And the “cAMP-mediated phosphorylation of Cav1.2” value [1]?
Its value is “significantly higher”.

And the “CFTR-dependent Cl− currents” value (wild-type CFTR)?
The value was “increased significantly”.

What about the “increase of the CFTR currents over basal activity” value (ΔF508-CFTR) of the same sequence?
The value was “about 5 fold”.

And the “CFTR phosphorylation (cAMP-mediated)” value (CFTR; 25 μM, vs vehicle or P1)?
Its value is “significantly higher”.

And the “cAMP-dependent CFTR phosphorylation induced by a PDE4 inhibitor” value (CFTR; peptide 25 μM together with Rolipram 10 μM)?
The value was “further enhanced”.
